Results published in patent US10687543B2, “Probiotic bacterial molecules and their use in methods to treat/prevent infection by harmful bacteria and to provide nutritional health” (priority 2008, dated 2020).

Test system: E. coli O157:H7 strain VS94
Assay type: cell-based, Escherichia coli O157:H7

Structure (SMILES): CC(C)NCC(O)COc1cccc2ccccc12 (stereo not drawn) [β-blocker, propanolol]
- % Adherence: 22%
